Laboratory results taken from patent US20150005288A1, “SUBSTITUTED PHENYLIMIDAZOPYRAZOLES AND USE THEREOF” (Bayer Intellectual Property GmbH, priority 2012, published 2015).

Biological target: T1, intracellular domain of human Tie2 (GST fusion protein) (Homo sapiens, UniProt Q02763)
T1 construct: intracellular domain of human Tie2 (amino acids 776-1124); made in house; host or cells: Baculovirus-infected insect cells (Hi5)
Experiment: Tie2 kinase assay (Tie2-TR-FRET)
Type: biochemical
Conditions: ATP concentration 1 mM, in some cases means of several independent determinations
Summary of the method: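 GST fusion of human Tie2 intracellular domain (aa 776-1124, Hi5-expressed), ~30 ng/ml, pre-incubated 15 min with compound, then 1 mM ATP and 1 μM biotinylated peptide, 60 min at 22 °C, pH 7. TR-FRET (Eu anti-phosphotyrosine/streptavidin-XL665, 665/620 nm ratio). […] 20 μM–0.073 nM in duplicate; IC50 by 4-parameter fit.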

T1 sequence (Q02763 776-1124): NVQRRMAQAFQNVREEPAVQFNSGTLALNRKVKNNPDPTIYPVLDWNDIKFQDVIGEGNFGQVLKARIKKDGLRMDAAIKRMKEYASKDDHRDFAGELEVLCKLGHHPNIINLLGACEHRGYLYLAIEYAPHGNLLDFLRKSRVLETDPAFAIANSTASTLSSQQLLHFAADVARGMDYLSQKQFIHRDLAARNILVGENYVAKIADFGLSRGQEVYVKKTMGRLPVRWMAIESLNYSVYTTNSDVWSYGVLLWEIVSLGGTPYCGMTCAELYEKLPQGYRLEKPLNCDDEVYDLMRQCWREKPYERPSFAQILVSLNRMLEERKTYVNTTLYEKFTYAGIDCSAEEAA

Row | Compound | IC50 [nM]
1 | Cc1ccc(S(F)(F)(F)(F)F)cc1C(=O)Nc1ccc(C)c(-n2ccn3nc(-c4cccnc4)cc23)c1 [Example 91, 2-Methyl-N-{4-methyl-3-[6-(pyridin-3-yl)-1H-imidazo[1,2-b]pyrazol-1-yl]phenyl}-5-(pentafluoro-λ^6-sulphanyl)benzamide] | 215
2 | Cc1ccc(NC(=O)c2cc(C#N)cc(C3(O)CCC3)c2)cc1-n1ccn2nc(-c3cccnc3)cc12 [Example 92, 3-Cyano-5-(1-hydroxycyclobutyl)-N-{4-methyl-3-[6-(pyridin-3-yl)-1H-imidazo[1,2-b]pyrazol-1-yl]phenyl}benzamide] | 29
3 | Cc1ccc(NC(=O)c2cc(C#N)nc(C(C)(C)C)c2)cc1-n1ccn2nc(-c3cccnc3)cc12 [Example 93, 2-tert-Butyl-6-cyano-N-{4-methyl-3-[6-(pyridin-3-yl)-1H-imidazo[1,2-b]pyrazol-1-yl]phenyl}-isonicotinamide] | 19
4 | N#Cc1cc(C(=O)Nc2ccc(C(F)(F)F)c(-n3ccn4nc(-c5cccnc5)cc34)c2)cc(S(F)(F)(F)(F)F)c1 [Example 95, 3-Cyano-5-(pentafluoro-λ^6-sulphanyl)-N-{3-[6-(pyridin-3-yl)-1H-imidazo[1,2-b]pyrazol-1-yl]-4-(trifluoromethyl)phenyl}benzamide] | 350
5 | O=C(Nc1ccc(Cl)c(-n2ccn3nc(-c4cccnc4)cc23)c1)c1cccc(S(F)(F)(F)(F)F)c1 [Example 96, N-{4-Chloro-3-[6-(pyridin-3-yl)-1H-imidazo[1,2-b]pyrazol-1-yl]phenyl}-3-(pentafluoro-λ^6-sulphanyl)benzamide] | 47
6 | N#Cc1cc(C(=O)Nc2ccc(Cl)c(-n3ccn4nc(-c5cccnc5)cc34)c2)cc(S(F)(F)(F)(F)F)c1 [Example 97, N-{4-Chloro-3-[6-(pyridin-3-yl)-1H-imidazo[1,2-b]pyrazol-1-yl]phenyl}-3-cyano-5-(pentafluoro-λ^6-sulphanyl)benzamide] | 9.2
7 | COc1ccc(NC(=O)c2cc(Br)cc(S(F)(F)(F)(F)F)c2)cc1-n1ccn2nc(-c3cccnc3)cc12 [Example 98, 3-Bromo-N-{4-methoxy-3-[6-(pyridin-3-yl)-1H-imidazo[1,2-b]pyrazol-1-yl]phenyl}-5-(pentafluoro-λ^6-sulphanyl)benzamide] | 595
8 | COc1ccc(NC(=O)c2cc(C#N)cc(S(F)(F)(F)(F)F)c2)cc1-n1ccn2nc(-c3cccnc3)cc12 [Example 99, 3-Cyano-N-{4-methoxy-3-[6-(pyridin-3-yl)-1H-imidazo[1,2-b]pyrazol-1-yl]phenyl}-5-(pentafluoro-λ^6-sulphanyl)benzamide] | 240
9 | Cc1cc(NC(=O)c2cccc(S(F)(F)(F)(F)F)c2)cc(-n2ccn3nc(-c4cccnc4)cc23)c1C [Example 100, N-{3,4-Dimethyl-5-[6-(pyridin-3-yl)-1H-imidazo[1,2-b]pyrazol-1-yl]phenyl}-3-(pentafluoro-λ^6-sulphanyl)benzamide] | 175
10 | Cc1c(F)cc(NC(=O)c2cccc(S(F)(F)(F)(F)F)c2)cc1-n1ccn2nc(-c3cccnc3)cc12 [Example 103, N-{3-Fluoro-4-methyl-5-[6-(pyridin-3-yl)-1H-imidazo[1,2-b]pyrazol-1-yl]phenyl}-3-(pentafluoro-λ^6-sulphanyl)benzamide] | 130
11 | Cc1c(F)cc(NC(=O)c2cc(C#N)cc(S(F)(F)(F)(F)F)c2)cc1-n1ccn2nc(-c3cccnc3)cc12 [Example 105, 3-Cyano-N-{3-fluoro-4-methyl-5-[6-(pyridin-3-yl)-1H-imidazo[1,2-b]pyrazol-1-yl]phenyl}-5-(pentafluoro-λ^6-sulphanyl)benzamide] | 39
12 | Cc1c(Cl)cc(NC(=O)c2cccc(S(F)(F)(F)(F)F)c2)cc1-n1ccn2nc(-c3cccnc3)cc12 [Example 106, N-{3-Chloro-4-methyl-5-[6-(pyridin-3-yl)-1H-imidazo[1,2-b]pyrazol-1-yl]phenyl}-3-(pentafluoro-λ^6-sulphanyl)benzamide] | 110
13 | Cc1cc(C)c(-n2ccn3nc(-c4cccnc4)cc23)cc1NC(=O)c1cc(Cl)cc(S(F)(F)(F)(F)F)c1 [Example 108, 3-Chloro-N-{2,4-dimethyl-5-[6-(pyridin-3-yl)-1H-imidazo[1,2-b]pyrazol-1-yl]phenyl}-5-(pentafluoro-λ^6-sulphanyl)benzamide] | 0.7
14 | Cc1cc(C)c(-n2ccn3nc(-c4cccnc4)cc23)cc1NC(=O)c1cc(Br)cc(S(F)(F)(F)(F)F)c1 [Example 109, 3-Bromo-N-{2,4-dimethyl-5-[6-(pyridin-3-yl)-1H-imidazo[1,2-b]pyrazol-1-yl]phenyl}-5-(pentafluoro-λ^6-sulphanyl)benzamide] | 0.5
15 | Cc1cc(C)c(-n2ccn3nc(-c4cccnc4)cc23)cc1NC(=O)c1cc(C(=O)O)cc(S(F)(F)(F)(F)F)c1 [Example 110, 3-({2,4-Dimethyl-5-[6-(pyridin-3-yl)-1H-imidazo[1,2-b]pyrazol-1-yl]phenyl}carbamoyl)-5-(pentafluoro-λ^6-sulphanyl)benzoic acid] | 5
16 | Cc1cc(C(=O)Nc2cc(-n3ccn4nc(-c5cccnc5)cc34)c(C)cc2C)cc(S(F)(F)(F)(F)F)c1 [Example 111, N-{2,4-Dimethyl-5-[6-(pyridin-3-yl)-1H-imidazo[1,2-b]pyrazol-1-yl]phenyl}-3-methyl-5-(pentafluoro-λ^6-sulphanyl)benzamide] | 0.7
17 | Cc1cc(C)c(-n2ccn3nc(-c4cccnc4)cc23)cc1NC(=O)c1cc(Br)cc(C(C)(C)C)c1 [Example 113, 3-Bromo-5-tert-butyl-N-{2,4-dimethyl-5-[6-(pyridin-3-yl)-1H-imidazo[1,2-b]pyrazol-1-yl]-phenyl}benzamide] | 0.6
18 | Cc1cc(C)c(-n2ccn3nc(-c4cccnc4)cc23)cc1NC(=O)c1cc(C#N)cc(C(C)(C)C)c1 [Example 114, 3-tert-Butyl-5-cyano-N-{2,4-dimethyl-5-[6-(pyridin-3-yl)-1H-imidazo[1,2-b]pyrazol-1-yl]phenyl}-benzamide] | 0.3
19 | Cc1cc(C)c(-n2ccn3nc(-c4cccnc4)cc23)cc1NC(=O)c1cc(Cl)nc(C(C)(C)C)c1 [Example 115, 2-tert-Butyl-6-chloro-N-{2,4-dimethyl-5-[6-(pyridin-3-yl)-1H-imidazo[1,2-b]pyrazol-1-yl]-phenyl}isonicotinamide] | 0.8
20 | Cc1cc(F)c(NC(=O)c2cc(C#N)cc(C(C)(C)C)c2)cc1-n1ccn2nc(-c3cccnc3)cc12 [Example 118, 3-tert-Butyl-5-cyano-N-{2-fluoro-4-methyl-5-[6-(pyridin-3-yl)-1H-imidazo[1,2-b]pyrazol-1-yl]-phenyl}benzamide] | 0.4
21 | Cc1ccc(NC(=O)c2cccc(S(F)(F)(F)(F)F)c2)c(C)c1-n1ccn2nc(-c3cccnc3)cc12 [Example 119, N-{2,4-Dimethyl-3-[6-(pyridin-3-yl)-1H-imidazo[1,2-b]pyrazol-1-yl]phenyl}-3-(pentafluoro-λ^6-sulphanyl)benzamide] | 110
22 | Cc1ccc(NC(=O)c2cc(Br)cc(S(F)(F)(F)(F)F)c2)c(C)c1-n1ccn2nc(-c3cccnc3)cc12 [Example 120, 3-Bromo-N-{2,4-dimethyl-3-[6-(pyridin-3-yl)-1H-imidazo[1,2-b]pyrazol-1-yl]phenyl}-5-(pentafluoro-λ^6-sulphanyl)benzamide] | 37
23 | Cc1ccc(NC(=O)c2cc(C#N)cc(S(F)(F)(F)(F)F)c2)c(C)c1-n1ccn2nc(-c3cccnc3)cc12 [Example 121, 3-Cyano-N-{2,4-dimethyl-3-[6-(pyridin-3-yl)-1H-imidazo[1,2-b]pyrazol-1-yl]phenyl}-5-(pentafluoro-λ^6-sulphanyl)benzamide] | 18
24 | Cc1ccc(NC(=O)c2cc(C(F)(F)F)cc(S(N)(=O)=O)c2)cc1-n1ccn2nc(-c3cccnc3)cc12 [Example 122, N-{4-Methyl-3-[6-(pyridin-3-yl)-1H-imidazo[1,2-b]pyrazol-1-yl]phenyl}-3-sulphamoyl-5-(trifluoromethyl)benzamide] | 3.9
25 | Cc1ccc(NC(=O)c2cccc(C(C)(C)C)c2)cc1-n1ccn2nc(-c3cccnc3)cc12 [Example 123, 3-tert-Butyl-N-{4-methyl-3-[6-(pyridin-3-yl)-1H-imidazo[1,2-b]pyrazol-1-yl]phenyl}benzamide] | 56
26 | Cc1cc(C(=O)Nc2ccc(C)c(-n3ccn4nc(-c5cccnc5)cc34)c2)cc(S(N)(=O)=O)c1 [Example 124, 3-Methyl-N-{4-methyl-3-[6-(pyridin-3-yl)-1H-imidazo[1,2-b]pyrazol-1-yl]phenyl}-5-sulphamoyl-benzamide] | 297
27 | Cc1ccc(NC(=O)c2cc(C(C)(C)C)ccn2)cc1-n1ccn2nc(-c3cccnc3)cc12 [Example 125, 4-tert-Butyl-N-{4-methyl-3-[6-(pyridin-3-yl)-1H-imidazo[1,2-b]pyrazol-1-yl]phenyl}pyridine-2-carboxamide] | 280
28 | Cc1cc(C)c(-n2ccn3nc(-c4cccnc4)cc23)cc1NC(=O)c1cccc(SC(F)(F)F)c1 [Example 126, N-{2,4-Dimethyl-5-[6-(pyridin-3-yl)-1H-imidazo[1,2-b]pyrazol-1-yl]phenyl}-3-[(trifluoromethyl)-sulphanyl]benzamide] | 1.2
29 | Cc1cc(C)c(-n2ccn3nc(-c4cccnc4)cc23)cc1NC(=O)c1cccc(OC(F)(F)F)c1 [Example 127, N-{2,4-Dimethyl-5-[6-(pyridin-3-yl)-1H-imidazo[1,2-b]pyrazol-1-yl]phenyl}-3-(trifluoromethoxy)benzamide] | 1.4
30 | Cc1cc(C)c(-n2ccn3nc(-c4cccnc4)cc23)cc1NC(=O)c1cccc(OC(F)F)c1 [Example 128, N-{2,4-Dimethyl-5-[6-(pyridin-3-yl)-1H-imidazo[1,2-b]pyrazol-1-yl]phenyl}-3-(difluoromethoxy)-benzamide] | 43
